Source: paper PMC4729491, “The Cellular Thioredoxin-1/Thioredoxin Reductase-1 Driven Oxidoreduction Represents a Chemotherapeutic Target for HIV-1 Entry Inhibition” (PLoS ONE, 2016)
Like-named read-outs stand apart in the source and are kept apart here.

Columns and labels:
[1] = system: HuT-78/HIV-1 and Sup-T1 cells; experiment: cells; type: cell-based; details: read-out: IC50 inhibition of syncytia formation
Protocol: Persistently infected HuT-78/HIV-1 cells were thoroughly washed to eliminate free virions. Next, 1 x 10^5 HuT-78/HIV-1 cells were co-cultivated with 1 x 10^5 Sup-T1 cells in 96-well plates (200 μl/well) during 20 h at 37°C, in the presence or absence of a serial dilution of compound. Afterwards, the formation of syncytia was evaluated microscopically. The EC50 was defined as the compound concentration required to suppress syncytia formation by 50%.

HIV-1(IIIB) [2] = type: cell-based; details: for time post-infection at which activity is lost: MT-4 cells, second TOA experiment, DS-8000 12.5 μM, AMD3100 625 nM
Protocol: Two time-of-drug-addition (TOA) experiments were performed and adopted from previously reported methods. Briefly, MT-4 cells were infected with HIV-1(IIIB) at a multiplicity of infection of 0.5. Following a 1 hour adsorption period, cells were washed, distributed in a 96-well tray at 100,000 cells per 200 μl per well and incubated at 37°C.
For the first experiment, test compounds were added to the infected cell cultures at different time points (i.e. 0, 1, 2, 3, 4, 5, 6, 7, 8, 9, 24, and 25 h) after the start of infection.
In a second experiment, the resolution of the assay was increased by evaluating early time points in more detail. Therefore, the test compounds were added to the infected cell cultures at the following time points after the start of infection: 0, 15, 30, 45, 100 and 180 min; and 24 as well as 25 h.
Product added at time points 0, 15, 30 and 45 min was present at the start of the viral infection and washed away after 1 hour. After washing, fresh product was added to maintain viral suppression throughout the remaining of the experiment.
HIV-1 production was determined at 31 h post infection via a p24 ELISA (Perkin Elmer, Brussels, Belgium).

PHA-stimulated PBMCs = experiment: Toxicity in PHA-stimulated PBMCs (trypan blue cell counting); type: cell-based, human; details: Homo sapiens, PBMC, 168 h, read-out: IC50 PBMC
Protocol: A similar experiment was performed to study the toxicity of the compounds in fresh, PHA-stimulated, PBMCs. Mock-infected PBMCs (2 x 10^5 cells) were exposed to a serial dilution of compound, in a total volume of 200 μl. Cells were passaged after 4 days. Cell survival and proliferation was assessed at day 7 using trypan blue-based cell counting with the Countess Automated Cell Counter (Invitrogen, Ghent, Belgium). The IC50 was defined as the concentration of the compound that inhibited cell proliferation by 50%.

HIV-1(IIIB) [3] = experiment: Antiviral activity in PHA-stimulated PBMCs (p24 ELISA), HIV-1(IIIB); type: cell-based; details: Human immunodeficiency virus 1, IIIB, PBMC, read-out: EC50 HIV-1 (IIIB)
Protocol: (§1) To test the antiviral activity in fresh, PHA-stimulated PBMCs, an experiment was performed as previously described. Briefly, the cells were preincubated with HIV-1(IIIB), HIV-1(BaL) or HIV-1(HE) for 1 h at 37°C, using a viral load of 1000 x CCID50 per ml. Then, cell suspensions containing virus and 2 x 10^5 PBMCs were seeded in a 96-well microtiter plate and a serial dilution of compound was added, in a total volume of 200 μl. After 4 days, the cells were passaged and fresh culture medium, containing IL-2 and compound, was added. Three days later, cellular supernatants were harvested and viral replication in the presence of the compounds was quantified using a p24 enzyme-linked immunosorbent assay (ELISA) (Perkin Elmer, Brussels, Belgium). The half maximal effective concentration (EC50) was defined as the compound concentration that is required to block viral replication by 50%.

HIV-1(HE) = experiment: Antiviral activity in PHA-stimulated PBMCs (p24 ELISA), HIV-1(HE); type: cell-based; details: Human immunodeficiency virus 1, PBMC, read-out: EC50 HIV-1 (HE)
Protocol: as §1

HIV-1(BaL) = experiment: Antiviral activity in PHA-stimulated PBMCs (p24 ELISA), HIV-1(BaL); type: cell-based; details: Human immunodeficiency virus 1, BAL, PBMC, read-out: EC50 HIV-1 (BAL)
Protocol: as §1

[4] = previously known structural properties ref 20-22; cited from earlier work
CEM cells = experiment: Cytostatic activity assay, CEM cells; type: cell-based; details: Homo sapiens, CCRF-CEM, 72 h; inhibition of cell proliferation by 50%, three-day drug-exposed; mean ± SD
Protocol: (§2) The cytostatic activity assay using transformed cell lines was also performed in 96-well microtiter plates. 5–7.5 x 10^4 human CD4^+ T-lymphocyte CEM or human cervix carcinoma HeLa cells and a given amount of the test compounds were added to each well. The cells were allowed to proliferate for 72 h (96 h for HeLa) at 37°C in a humidified CO2-controlled atmosphere. At the end of the incubation period, the cells were counted in a Coulter counter (type ZM, Coulter Electronics, Analis, Ghent, Belgium).

HeLa cells = experiment: Cytostatic activity assay, HeLa cells; type: cell-based; details: Homo sapiens, 72 h, read-out: IC50 HeLa
Protocol: as §2

HIV-1 = experiment: Infectivity (TZM-bl) of virus particles produced by ACH-2 cells in presence of compound; type: cell-based
Protocol: To measure the infectivity of particles produced in the presence of the compounds, washed persistently HIV-1-infected ACH-2 cells (1 x 10^6 cells/ml) were cultured with 100 nM PMA in the presence of the indicated concentration of compounds. After 3 days, the p24 content of the clarified supernatant (see virus expression) was measured. The cell supernatant was then used for an infectivity test (see infectivity assay) without the further addition of any compound to the cultures. The final dilution of the ACH-2 supernatant in the infectivity test was 1:100. A control experiment was performed, in which virus particles produced without the addition of compound, were used for the infectivity test. Additionally, the same amount of compound that could have been carried over with the virus containing supernatant in the original experiment was added to the infectivity test (final concentration: 1/100 of the indicated amount in the viral growth culture).

HIV-2(ROD) = experiment: Inhibition of HIV-2(ROD)-induced giant cell formation in CEM cell cultures; type: cell-based
Protocol: (§3) To study the antiviral activity in transformed cells, CEM cells were suspended in fresh culture medium and infected with HIV-1(IIIB) or HIV-2(ROD) at 100 x CCID50 (cell culture infective dose 50%) per ml of cell suspension. Infected cell suspension (100 μl; 3 x 10^5 cells/ml) was transferred to a 96-well microplate, mixed with 100 μl of the appropriate dilutions of compounds, and further incubated at 37°C. After 4 days, giant cell formation was recorded microscopically and the number of giant cells was estimated microscopically as percentage of the number of giant cells present in the non-treated virus-infected cell cultures.

HIV-1(IIIB) [5] = experiment: microbe, parasite or virus in culture; type: cell-based
Protocol: as §3

**Q.** Which IC50 ([1]; cocultures of HuT-78/HIV-1 and Sup-T1 cells, ~24 hours) does the source give for enfuvirtide here?
**A.** The IC50 was 0.275 ± 0.15 µM.

**Q.** With `c1cc(CN2CCCNCCNCCCNCC2)ccc1CN1CCCNCCNCCCNCC1` [AMD3100] as the compound, how does the “inhibition in time-of-addition assay” value (HIV-1(IIIB) [2]; 625 nM) read?
**A.** Its value is “fully inhibitory”.

**Q.** What about the “time post-infection at which activity is lost” value (HIV-1(IIIB) [2]) of the same compound?
**A.** The value was 30 to 45 min.

**Q.** What about the IC50 ([1]; Human immunodeficiency virus 1, cocultures of HuT-78/HIV-1 and Sup-T1 cells, ~24 hours) of the same compound?
**A.** The IC50 was 9.3 ± 4.3 µM.

**Q.** For `CN(C)c1ccc([Te]CCCOc2ccccc2)cc1` [TE-14, N,N-dimethyl-4-aminophenyl 3-phenoxypropyl telluride], which IC50 (PHA-stimulated PBMCs) is on record?
**A.** Its IC50 is 9.9 ± 2.5 µM.

**Q.** What about the EC50 (HIV-1(IIIB) [3]) of the same compound?
**A.** The EC50 was 4.9 ± 2.1 µM.

**Q.** And the EC50 (HIV-1(HE))?
**A.** Its EC50 is 5.4 ± 3 µM.

**Q.** And the EC50 (HIV-1(BaL))?
**A.** The EC50 was 9.6 ± 10 µM.

**Q.** And the Hydrophobicity [4]?
**A.** The Hydrophobicity was “Hydrophobic”.

**Q.** What about the IC50 (CEM cells) of the same compound?
**A.** Its IC50 is 22 ± 2 µM.

**Q.** And the IC50 (HeLa cells)?
**A.** The IC50 was 25 ± 4 µM.

**Q.** And the “infectivity of virus particles produced in presence of compound (normalized for equal p24)” value (HIV-1; ACH-2 cultures exposed to compound 3 days, supernatant 1:100 titrated on TZM-bl)?
**A.** The value was “substantially less infectious virus particles”.

**Q.** What about the “carry-over control: residual compound as cause of decreased infectivity” value (HIV-1; compound added at 1/100 of concentration in viral growth culture) of the same compound?
**A.** The value was “could not be explained by the presence of residual compound”.

**Q.** And the IC50 ([1]; Human immunodeficiency virus 1, SUP-T1, 24 h)?
**A.** Its IC50 is > 250 µM.

**Q.** What about the “Ratio IC50/EC50 HIV-2 (CEM)” value (HIV-2(ROD); CEM cells) of the same compound?
**A.** The value was 16.

**Q.** And the EC50 (HIV-2(ROD); Human immunodeficiency virus 2, CCRF-CEM, read-out: EC50 HIV-2 (ROD))?
**A.** The EC50 was 1.4 ± 0.56 µM.

**Q.** And the “Ratio IC50/EC50 HIV-1 (CEM)” value (HIV-1(IIIB) [5]; CEM cells)?
**A.** Its value is 26.

**Q.** What about the EC50 (HIV-1(IIIB) [5]; Human immunodeficiency virus 1, IIIB, CCRF-CEM, read-out: EC50 HIV-1 (IIIB)) of the same compound?
**A.** The EC50 was 0.86 ± 0.21 µM.

**Q.** With dextran sulphate [DS-8000] as the compound, how does the “time post-infection at which activity is lost” value (HIV-1(IIIB) [2]) read?
**A.** Its value is 30 to 45 min.
